This experiment deals with Sentrin-specific protease 8 (Homo sapiens) (UniProt Q96LD8). The experiment in a line: inhibition of human SENP8 cleavage activity – biochemical, luminescence, SAR follow-up (AID 504501). The settings on record: recombinant SENP8 enzyme, luminescent protease assay.
Sequence of Sentrin-specific protease 8 (Homo sapiens) (Q96LD8 whole entry, looked up): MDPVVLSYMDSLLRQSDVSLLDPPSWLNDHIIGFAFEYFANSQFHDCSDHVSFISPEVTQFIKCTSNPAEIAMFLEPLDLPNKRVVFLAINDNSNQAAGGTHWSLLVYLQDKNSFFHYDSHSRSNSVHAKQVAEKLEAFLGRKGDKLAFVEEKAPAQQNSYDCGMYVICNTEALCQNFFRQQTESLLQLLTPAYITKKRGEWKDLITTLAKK

For `Cc1cccc(C(=O)Nc2scc(-c3ccc(Br)cc3)c2C(=O)O)c1`, the IC50 is 3.75 µM.

Regarding `Fc1ccc(COc2ccc(C(=S)N3CCCC3)cc2)cc1`, the IC50 is 2.5 µM.

The record behind these values is PubChem BioAssay AID504501 (Sanford-Burnham Center for Chemical Genomics, 2011).
